Experimental data reported in US9585871B2, “Method for treating and curing leishmaniosis using fexinidazole” (Merial Limited, priority 2013, dated 2017).
Values joined by “and” are separate entries in the source; they are usually repeats but may differ in a detail not shown here. Equal values may be shown once. “Also recorded” adds a separate entry of the source.

Legend:
bone marrow micronucleus = test: Mammalian cell mutagenicity, bone marrow micronucleus study; format: in vivo; details: all test concentrations (500, 1000 and 2000 mg/kg)
Source text: (§1) Toxicology summary. In mice and rats, the maximum fexinidazole (FEX) dose after oral administration is 10 g/kg of body weight. […] Finally, as regards PK, labeled FEX and its metabolites were excreted within 3 days in the feces (52-58%) and urine (36-40%).

L. infantum [1] = test: Clinical study in dogs infected with L. infantum: Clinical Score; format: in vivo; set-up: key: additive score of clinical signs (body condition, lymphadenopathy, etc.); details: Glucantime 100 mg/kg dNMA SC or Fexinidazole 60 mg/kg PO once daily Days 0-27
Method: (§2) In a clinical study, dogs infected with L. infantum were treated with meglumine antimoniate (GLUCANTIME®, Merial) as a positive control, or FEX (Table 5). Eight blocks of two animals were formed based antibody titers and biological scores. Six dogs in each group were naturally infected by housing them in an endemic area for two years and two dogs in each group were artificially infected by intravenous administration of a known quantity of parasites recovered from the spleen of an infected dog.
(§3) The first group (FEX) was compared to the second group, which was treated with 27 mg/kg GLUCANTIME (meglumine antimoniate, or 100 mg/kg of dNMA) “GLU”), over 28 days.
(§4) Variables. The Clinical Score is an additive score of various clinical signs (body condition, lymphadenopathy, splenomegaly, appetite, behavior, mucous membrane color, dermatopathology, ocular signs, digestive signs, arthropathy) evaluated before treatment and on Days 7, 14, 21, 28, 57, 184, 219, 254, 282, 310, 345, 400 and 436. The Overall Biological Score is an additive score based on the severity of changes in hematology/chemistry values (creatinine, urine protein/creatinine, Hct, globulin, ALAT), evaluated pretreatment and on Days 28, 57, and 181. The L. infantum immunofluorescent antibody titers (IFAT) were determined from samples collected before treatment and on Days 28, 57, and 181. Finally, quantitative PCR (qPCR) for L. infantum was conducted on spleen aspirates collected before treatment and on Days 28, 57, 142, 184, and 373.

[2] = Toxicology studies in beagles, 90 days (13 weeks); format: in vivo; details: daily doses up to 125 mg/kg/day for 90 days (13 weeks)
Source text: as §1

L. infantum [3] = test: Clinical study in dogs infected with L. infantum: overall outcome (cure, relapse, removal of animals); format: in vivo; details: canines, L. infantum
Method: as §2
The first group (FEX) was compared to the second group, which was treated with 27 mg/kg GLUCANTIME (meglumine antimoniate, or 100 mg/kg of dNMA) “GLU”), over 28 days. […]

L. infantum [4] = test: Clinical study in dogs infected with L. infantum: Overall Biological Score; format: in vivo; set-up: key: additive score of severity of hematology/chemistry changes; details: Glucantime 100 mg/kg dNMA SC or Fexinidazole 60 mg/kg PO once daily Days 0-27
Method: as §2, §3, §4

L. infantum [5] = test: Clinical study in dogs infected with L. infantum: qPCR on spleen aspirates; format: in vivo; details: spleen aspirate, Glucantime 100 mg/kg dNMA SC or Fexinidazole 60 mg/kg PO once daily Days 0-27
Method: as §2, §3, §4

[6] = Multiple dosing study in dogs, 28 consecutive days oral: tolerability; format: in vivo, dog; details: for Effects observed: dog, in vivo
Source text: In a particular embodiment, the sufficient fexinidazole plasma levels are achieved by administering oral veterinary compositions comprising an effective amount of fexinidazole over a period of time of at least about twenty days. The fexinidazole may be administered according to any effective regimen, including, but not solely, once weekly, twice weekly, once daily, or twice daily. All that is required is that dosing regimen maintains a sufficient fexinidazole plasma level, over a sufficient period of time, to substantially or completely eliminate or cure the Leishmania infections.
Moreover, inventors expect that a wide variety of dosing regimens are now available to the skilled person to achieve the necessary and sufficient fexinidazole plasma levels. For example, and as further outlined in the Examples below, any dosing regimen that produces substantially similar fexinidazole plasma levels, as compared to those levels produced by giving the dogs about 60 mg/kg/day for about twenty-eight days, is expected to substantially or completely eliminate the Leishmania parasites. Table 1 presents the systemic fexinidazole exposure following dosing of dogs with 50, 200, and 800 mg/kg/day.

[7] = Excretion and metabolites of labeled FEX; format: in vivo
Source text: as §1

[8] = Reproductive toxicity study, rats; format: in vivo; details: oral 200 mg/kg for 10 days
Source text: as §1

chromosome damage = test: Chromosome damage in vitro or in vivo
Source text: as §1

[9] = labeled FEX and its metabolites, within 3 days

In the case of `CSc1ccc(OCc2ncc([N+](=O)[O-])n2C)cc1` [Fexinidazole, fexinidazole], the “mammalian cell mutagenicity, bone marrow micronucleus study” value (bone marrow micronucleus) is reported as “negative”, the “Clinical Score, group average” value (L. infantum [1]; Day 7) is reported as 2.8 and the “Clinical Score” value (L. infantum [1]; Day 14, individual dogs) is reported as 2 (2×) and 0 (2×) and 3 (3×). The “Clinical Score, group average” value (L. infantum [1]; Day 14) was 1.6, the “Clinical Score” value (L. infantum [1]; Day 21, individual dogs) was 0 (5×) and 2 (2×) and the “Clinical Score, group average” value (L. infantum [1]; Day 21) was 0.5. The “Clinical Score” value (L. infantum [1]; Day 28, individual dogs) was 0 (4×) and 1 (2×) and 2, the “Clinical Score, group average” value (L. infantum [1]; Day 28, Group 1 includes D21 data of Block 3 dog carried forward) was 0.5 and the “Clinical Score” value (L. infantum [1]; Day 57, individual dogs) was 2 (3×) and 0 (4×). For the same compound, the “Clinical Score, group average” value (L. infantum [1]; Day 57, Group 1 includes D21 data of Block 3 dog carried forward) was 0.8, the “Clinical Score” value (L. infantum [1]; Day 184, individual dogs) was 0 and the “Clinical Score, group average” value (L. infantum [1]; Day 184) was 0.1. For the same compound, the “Clinical Score” value (L. infantum [1]; Day 219, individual dogs) was 0 (6×) and 1, the “Clinical Score, group average” value (L. infantum [1]; Day 219) was 0.1 and the “Clinical Score” value (L. infantum [1]; Day 254, individual dogs) was 0 (7×) and 4. For the same compound, the “Clinical Score, group average” value (L. infantum [1]; Day 254) was 0.5, the “Clinical Score” value (L. infantum [1]; Day 282, individual dogs) was 0 (7×) and 2 and the “Clinical Score, group average” value (L. infantum [1]; Day 282) was 0.3. For the same compound, the “Clinical Score” value (L. infantum [1]; Day 310, individual dogs) was 0 (6×) and 2, the “Clinical Score, group average” value (L. infantum [1]; Day 310) was 0.3 and the “Clinical Score” value (L. infantum [1]; Day 345, individual dogs) was 0 (6×) and 2. For the same compound, the “Clinical Score, group average” value (L. infantum [1]; Day 345) was 0.3, the “Clinical Score” value (L. infantum [1]; Day 400, individual dogs) was 0 (5×) and 1 and 2 and the “Clinical Score, group average” value (L. infantum [1]; Day 400) was 0.4. For the same compound, the “Clinical Score, group average” value (L. infantum [1]; Day 436) was 0.4, the “Clinical Score, group average” value (L. infantum [1]; Day −7 (before treatment)) was 2.4 and the “adverse events (AEs)” value [2] was “no observed adverse events”. For the same compound, the relapse (L. infantum [3]; 180 days after treatment initiation) was “No relapse was observed”, the “cure of Leishmania infection” value (L. infantum [3]; oral 60 mg/kg/day for 28 days, qPCR-confirmed, 60 mg/kg/day) was “can substantially or completely eliminate or cure L. infantum infection in canines; also recorded: sufficient to cure canines of leishmania parasites; also recorded: complete curing efficacy” and the “Overall Biological Score” value (L. infantum [4]; Day 28, individual dogs) was 3 (2×) and 2 (2×) and 1 (2×) and 0 (2×). For the same compound, the “Overall Biological Score, group average” value (L. infantum [4]; Day 28) was 1.5, the “Overall Biological Score” value (L. infantum [4]; Day 57, individual dogs) was 2 (3×) and 0 (3×) and 3 (2×) and the “Overall Biological Score, group average” value (L. infantum [4]; Day 57, Group 1 includes D28 data of Block 3 dog carried forward) was 1.5. For the same compound, the “Overall Biological Score” value (L. infantum [4]; Day 181, individual dogs) was 0 (5×) and 1 (2×) and 3, the “Overall Biological Score, group average” value (L. infantum [4]; Day 181, Group 1 includes D28 data of Block 3 dog carried forward) was 0.6 and the “Overall Biological Score” value (L. infantum [4]; Day −14 (pretreatment), individual dogs) was 4 and 7 and 5 (2×) and 2 and 3 and 1 and 0. For the same compound, the “Overall Biological Score, group average” value (L. infantum [4]; Day −14 (pretreatment)) was 3.4, the “qPCR for L. infantum” value (L. infantum [5]; Day 28, individual dogs) was “BLOQ (BLOQ = Below Level of Quantification = < log 3.64 copies/mL spleen aspirate)” and the “qPCR for L. infantum” value (L. infantum [5]; Day 57, individual dogs) was “BLOQ (BLOQ = Below Level of Quantification = < log 3.64 copies/mL spleen aspirate)”. The “qPCR for L. infantum” value (L. infantum [5]; Day 142, individual dogs) was “BLOQ (BLOQ = Below Level of Quantification = < log 3.64 copies/mL spleen aspirate)”, the “qPCR for L. infantum” value (L. infantum [5]; Day 184, individual dogs) was “BLOQ (BLOQ = Below Level of Quantification = < log 3.64 copies/mL spleen aspirate)” and the “qPCR for L. infantum” value (L. infantum [5]; Day 373, individual dogs) was “BLOQ (BLOQ = Below Level of Quantification = < log 3.64 copies/mL spleen aspirate) (7×) and 3.82 log copies/mL”. The “qPCR for L. infantum” value (L. infantum [5]; Day −7 (before treatment), individual dogs) was 7.19 log copies/mL and 7.11 log copies/mL and 5.21 log copies/mL and 5.57 log copies/mL and 6.58 log copies/mL and 5.81 log copies/mL and 6.01 log copies/mL and BLOQ (BLOQ = Below Level of Quantification = < log 3.64 copies/mL spleen aspirate), the Effects observed ([6]; 200 mg/kg/day) was “no effects were observed” and the Effects observed ([6]; 800 mg/kg/day) was “only minor effects were observed”. The Tolerability ([6]; dogs, oral 50, 200 and 800 mg/kg/day for 28 consecutive days) was “well tolerated”, the “time to excretion of labeled FEX and its metabolites” value ([7]; feces and urine) was ≤ 3 days and the main metabolites ([7]; in vivo) was “the sulfoxide, the sulfone, and the corresponding phenolic fragments”. The “excretion in the feces” value [7, 9] was 52-58%, the “excretion in the urine” value [7, 9] was 36-40% and the embryotoxic effects [8] was “no embryotoxic effects”. For the same compound, the chromosome damage (chromosome damage) was “does not induce chromosome damage”.
